Test results published in patent publication US20260000705A1, “LIPOPOLYSACCHARIDE FOR USE AS A MEDICAMENT” (priority 2022, published 2026).

Assays:
[1] = biological target: TLR2/6 (Homo sapiens, UniProt O60603+Q9Y2C9); test: Luciferase reporter assay in HEK-293+TLR2/6 cells; type: cell-based; conditions: corrected on renilla activity; ratios compared to non-stimulated cells; cells lysed 24 h after ligand
Protocol: (§1) Stable immortalized HEK-293+TLR2/6 and HEK-293+TLR4/MD2/CD14 (Invitrogen) cells were seeded in 6-well plates in 1× DMEM supplemented with 5% FBS, 1 mM glutamine, amino acids not essential 1× and pyruvate 0.01%. At 80% confluency, pcon3A-luciferase (pcon3A motif responses to KNFB activation) and TK-renilla vectors (99:1 ratio, respectively) were transfected with metafectene. The transfection medium was changed after 24 hours, and the cells were seeded in 96-well plates. Ligands were added 24 hours later at 80% confluence and cells were lysed after 24 h. Luciferase activity was read using the TwinLite kit (Perkin Elmer) on a Fluo Star Optima (BMG) plate reader and corrected based on renilla activity (three replicates per condition). All ratios were compared to the control condition (non-stimulated cells). We used Pam3CSK4, FSL-1, and Escherichia coli LPS as control ligands with agonistic effect mediated by TLR2/1, TLR2/6, and TLR4 receptors, respectively. TNF alpha was used as a positive control in all cell lines.

[2] = biological target: TLR4/MD2/CD14 (Homo sapiens, UniProt O00206+Q9Y6Y9); test: Luciferase reporter assay in HEK-293+TLR4/MD2/CD14 cells; type: cell-based; conditions: corrected on renilla activity; ratios compared to non-stimulated cells; cells lysed 24 h after ligand
Protocol: as §1

Chain of TLR2/6 (O60603 21-784): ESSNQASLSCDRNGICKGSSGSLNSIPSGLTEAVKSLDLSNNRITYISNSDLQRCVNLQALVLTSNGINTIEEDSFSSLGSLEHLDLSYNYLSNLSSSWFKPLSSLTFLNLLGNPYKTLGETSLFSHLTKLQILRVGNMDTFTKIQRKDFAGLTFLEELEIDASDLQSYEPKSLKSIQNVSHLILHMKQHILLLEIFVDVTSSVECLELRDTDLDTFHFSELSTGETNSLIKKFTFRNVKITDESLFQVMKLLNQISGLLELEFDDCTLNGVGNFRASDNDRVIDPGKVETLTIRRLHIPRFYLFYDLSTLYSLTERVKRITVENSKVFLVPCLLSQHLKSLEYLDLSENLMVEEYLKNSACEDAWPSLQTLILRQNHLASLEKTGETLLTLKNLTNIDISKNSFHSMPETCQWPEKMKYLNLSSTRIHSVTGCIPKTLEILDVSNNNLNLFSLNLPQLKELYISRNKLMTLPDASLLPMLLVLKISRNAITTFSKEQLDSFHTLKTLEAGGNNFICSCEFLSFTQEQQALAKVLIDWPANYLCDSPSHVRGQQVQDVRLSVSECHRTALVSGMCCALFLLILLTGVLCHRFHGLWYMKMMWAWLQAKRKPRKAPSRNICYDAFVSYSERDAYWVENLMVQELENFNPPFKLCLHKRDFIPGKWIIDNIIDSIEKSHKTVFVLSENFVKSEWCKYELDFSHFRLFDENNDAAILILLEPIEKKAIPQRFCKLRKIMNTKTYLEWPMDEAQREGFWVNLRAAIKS
Chain of TLR2/6 (Q9Y2C9 32-796): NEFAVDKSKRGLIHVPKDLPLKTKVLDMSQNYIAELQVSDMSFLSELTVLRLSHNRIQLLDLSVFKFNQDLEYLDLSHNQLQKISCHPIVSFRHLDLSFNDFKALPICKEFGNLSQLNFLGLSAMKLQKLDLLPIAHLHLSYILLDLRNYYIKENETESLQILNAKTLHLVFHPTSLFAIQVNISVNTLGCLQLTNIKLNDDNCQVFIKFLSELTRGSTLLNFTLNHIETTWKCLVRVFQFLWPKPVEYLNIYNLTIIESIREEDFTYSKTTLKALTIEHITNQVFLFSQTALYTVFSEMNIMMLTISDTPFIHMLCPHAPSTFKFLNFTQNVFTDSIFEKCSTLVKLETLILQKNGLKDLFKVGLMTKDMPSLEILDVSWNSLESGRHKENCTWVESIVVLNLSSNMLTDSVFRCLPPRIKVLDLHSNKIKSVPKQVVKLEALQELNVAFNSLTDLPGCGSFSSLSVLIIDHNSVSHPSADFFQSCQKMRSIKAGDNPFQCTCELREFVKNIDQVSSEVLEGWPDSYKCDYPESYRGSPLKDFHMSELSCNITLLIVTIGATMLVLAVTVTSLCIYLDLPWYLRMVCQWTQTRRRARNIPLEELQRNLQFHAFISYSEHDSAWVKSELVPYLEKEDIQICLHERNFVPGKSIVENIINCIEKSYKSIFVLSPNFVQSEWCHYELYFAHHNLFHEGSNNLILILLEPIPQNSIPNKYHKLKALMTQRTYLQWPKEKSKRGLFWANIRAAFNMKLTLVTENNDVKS
Chain of TLR4/MD2/CD14 (Q9Y6Y9 19-160): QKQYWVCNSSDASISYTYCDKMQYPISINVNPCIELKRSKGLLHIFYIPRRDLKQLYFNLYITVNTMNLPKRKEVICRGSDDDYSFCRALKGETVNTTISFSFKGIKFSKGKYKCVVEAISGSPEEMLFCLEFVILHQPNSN
Chain of TLR4/MD2/CD14 (O00206 24-839): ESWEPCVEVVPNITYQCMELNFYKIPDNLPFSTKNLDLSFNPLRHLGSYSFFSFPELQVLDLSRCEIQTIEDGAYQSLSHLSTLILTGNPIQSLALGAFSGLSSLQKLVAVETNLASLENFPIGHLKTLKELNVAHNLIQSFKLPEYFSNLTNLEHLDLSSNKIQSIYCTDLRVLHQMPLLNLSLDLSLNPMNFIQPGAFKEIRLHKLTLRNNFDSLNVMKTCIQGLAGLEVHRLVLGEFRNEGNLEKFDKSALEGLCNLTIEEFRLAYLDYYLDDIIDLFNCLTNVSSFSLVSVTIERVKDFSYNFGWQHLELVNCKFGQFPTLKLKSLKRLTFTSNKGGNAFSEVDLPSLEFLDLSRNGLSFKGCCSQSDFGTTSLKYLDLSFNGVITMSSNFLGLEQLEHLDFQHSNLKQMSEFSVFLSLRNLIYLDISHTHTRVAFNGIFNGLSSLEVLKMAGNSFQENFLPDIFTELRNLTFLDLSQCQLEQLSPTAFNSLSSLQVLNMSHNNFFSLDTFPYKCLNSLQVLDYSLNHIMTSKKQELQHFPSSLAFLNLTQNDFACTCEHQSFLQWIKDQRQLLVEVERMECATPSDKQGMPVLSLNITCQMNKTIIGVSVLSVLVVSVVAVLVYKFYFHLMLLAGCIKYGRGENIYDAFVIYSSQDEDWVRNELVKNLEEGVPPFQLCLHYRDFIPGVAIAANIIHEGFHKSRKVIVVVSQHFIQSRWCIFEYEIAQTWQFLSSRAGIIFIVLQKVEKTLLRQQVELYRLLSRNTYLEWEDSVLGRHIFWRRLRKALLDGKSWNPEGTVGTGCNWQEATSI

Substance | HEK-TLR2 luciferase activity [1] | HEK-TLR4 luciferase activity [2]
FSL-1 | 2.195 fold vs non-stimulated cells | 1.123 fold vs non-stimulated cells
Pam3CSK4 | 4.079 fold vs non-stimulated cells | 1.112 fold vs non-stimulated cells
